Here are results for 2 compounds from patent US10259817B2, “Crystal (6S,9aS)-N-benzyl-8-({6-[3-(4-ethylpiperazin-1-yl)azetidin-1-yl]pyridin-2-yl}methyl)-6-(2-fluoro-4-hydroxybenzyl)-4,7-dioxo-2-(prop-2-en-1-yl)hexahydro-2H-pyrazino[2,1-c][1,2,4]triazine-1(6H)-carboxamide” (Eisai R&D Management Co., Ltd., priority 2015, dated 2019).

Experiment [1] relates to human chronic myologenous leukemia cell strain K562. Particulars: day 28; Dasatinib 5 mg/kg alone, oral qd 5 days + 2-day holiday, two cycles.
Source text: A preparation of a human chronic myologenous leukemia cell strain K562 (which had been cultured in a RPMI-1640 liquid culture medium supplemented with 10% FBS and penicillin/streptomycin) which was so prepared with PBS (Wako Pure Chemical Industries, Ltd.; Cat#045-29795) that the density became 2×10^8 cells/mL was mixed with [sequence] (BD Biosicence, Cat#: 354234) at a mixing ratio of 1:1, thereby preparing a cell suspension having a density of 1×10^8 cells/mL. The resulting cell suspension was transplanted subcutaneously into the right flank of each of six-week-old nude mice (CAnN.Cg-Foxn1nu/CrlCrlj, female, Charles River Laboratories Japan) at a dose of 100 μL. Seven days after the transplantation, the shorter diameter and the longer diameter of a tumor were measured using an electronic digital caliper (Digimatic™ Caliper, Mitutoyo Corporation) to calculate the tumor volume in accordance with the following equation. Tumor volume (mm^3)=(longer diameter (mm))×(shorter diameter (mm))×(shorter diameter (mm))/2
The mice were grouped in such a manner that the average value of the tumor volumes in mice in a group, which were determined on the basis of the tumor volume on the first day of the administration. […]
Another experiment has as its system Wnt signal. Put plainly: Detection of Wnt signal (TOPglow luciferase reporter, LiCl-stimulated HEK293 clone). In kind it is cell-based. Particulars: Homo sapiens; HEK293 pNeo-TOP clone, LiCl added, luciferase emission; read-out: IC50, concentration required for inhibiting the Wnt signal activity by 50%. A general note: Reporter assays use an easily measured gene product as a stand-in for the process of interest.

Source text for Wnt signal: The plasmid pNeo-TOP was introduced into human fetus-derived renal cell strain HEK293, then a compound was selected using G418, and then a cell clone strain was established by a limiting dilution method. The cell clone strain was subjected to a Wnt signal detection test.
The cell clone strain was subcultured in a D-MEM glucose-rich culture medium (Wako Pure Chemical Industries, Ltd.) containing 10% FBS, and cells in a growth phase were used in the test. Cells were collected using trypsin-EDTA, the number of the cells was counted, and then the cells were suspended in a D-MEM glucose-rich culture medium containing 10% FBS so that the number of cells became 2×10^5 cells/mL. The cell suspension was added to a 96-well cell culture plate (Greiner Bio-One Co., Ltd., product number: 655083) in an amount of 0.1 mL/well and then cultured overnight in a 5% CO2 incubator (37° C.). After the culturing, a substance to be tested, which was dissolved in DMSO, was diluted with a D-MEM glucose-rich culture medium containing 10% of FBS and 80 mM of LiCl to produce a sample solution. The sample solution (0.1 mL) was added to each well and then cultured in a 5% CO2 incubator (37° C.) overnight. […] The plate was put on a plate mixer for several seconds, and then the emission of light from each well was measured using a EnVision™ Multilabel plate reader (PerkinElmer Co., Ltd.). […]

As to `Cc1nc(Nc2ncc(C(=O)Nc3c(C)cccc3Cl)s2)cc(N2CCN(CCO)CC2)n1` [Dasatinib], the “the number of individuals in which a tumor was not observed by visual judgment/total number of administered individuals” value in experiment [1] is recorded as 0/9.

On to `C=CCN1CC(=O)N2[C@@H](Cc3ccc(O)cc3F)C(=O)N(Cc3cccc(N4CC(N5CCN(CC)CC5)C4)n3)C[C@@H]2N1C(=O)NCc1ccccc1` [Example 1, (6S,9aS)-N-benzyl-8-({6-[3-(4-ethylpiperazin-1-yl)azetidin-1-yl]pyridin-2-yl}methyl)-6-(2-fluoro-4-hydroxybenzyl)-4,7-dioxo-2-(prop-2-en-1-yl)hexahydro-2H-pyrazino[2,1-c][1,2,4]triazine-1(6H)-carboxamide], for which the IC50 with Wnt signal turned out to be 60 nM.
